Read-outs that look alike come from different tables or passages of the source.
How the values were obtained:
[1] = system: H460 non-small cell lung cancer human tumor cell line; test: In vitro human tumor cell line cytotoxicity (proliferation) assay on H460, CTG, with or without AST-3021; format: cell-based; conditions: for IC50: Homo sapiens
Method: In vitro human tumor cell line cytotoxicity assay was used.
In vitro proliferation data on the H460 non-small cell lung cancer human tumor cell line (cell line which highly expresses AKR1C3) is reported below in the compound table.
IC50 values were obtained with the following steps:
Specifically, exponentially growing cells were seeded at a density of 2×10^3 cells/100 μL/well in a 96-well plate and incubated at 37° C. in 5% CO2, 95% air and 100% relative humidity for 24 hours. The test compound was administered alone: 24 hours after cell plating, the compound acted alone, 99 μL of growth medium per well was added, and 1 μL of the compound prepared at 200× was added, and the plate was shaken gently to ensure even mixing, then placed into an incubator of 37° C., 5% CO2. After further cultivation for 72 hours, the number of live cells was detected using CTG. The CTG detection method was as follows: the cell plate to be tested was placed at room temperature to equilibrate for 30 minutes, and 100 μL of medium per well was discarded. 25 μL of CTG reagent (CellTiter-Glo® kit) per well was added, and the plate was placed in a high-speed shaker to oscillate for 2 minutes, and placed at room temperature in the dark for 30 minutes. The chemiluminescence signal value was read using a multimode microplate reader, with a read time of 1000 ms.
Similarly, in order to further verify that the compounds were activated by human AKR1C3 (aldosterone reductase family 1 member C3), the effect of some of the compounds on the proliferation of H460 cancer cells was tested with pretreatment with a specific AKR1C3 enzyme inhibitor AST-3021 (3 μM). The detailed experimental procedure was as follows: 24 hours after cell plating, 98 μL of growth medium per well was added, and 1 μL of 200×compound AST-3021 was added to each well, and the plate was shaken gently to ensure even mixing, and then placed into an incubator; after 2 hours, 1 μL of the test compound prepared at 200× was added, and the plate was shaken gently to ensure even mixing and then laced into an incubator of 37° C., 5% CO2. The inhibitor used was compound 36, i.e.
in Flanagan et al., Bioorganic and Medicinal Chemistry (2014), page 962-977, and is referred to as AST-3021 in this invention. The values measured in this case are values corresponding to +AST-3021 IC50 (nM) in Table 1.
The value corresponding to +AST-3021 IC50 (nM) divided by the value corresponding to IC50 (nM) is the specific activation ratio. The relative magnitude of the specific activation ratio can be used to evaluate whether this compound is a cytotoxic compound activated by human AKR1C3 (aldosterone reductase family 1 member C3): when the specific activation ratio is less than 1, it is considered that the compound is not activated by human AKR1C3 (aldosterone reductase family 1 member C3); when the specific activation ratio is greater than 1, it is considered that the compound is activated by human AKR1C3 (aldosterone reductase family 1 member C3), and the higher the value, the higher the activation degree and the selectivity of AKR1C3.

[2] = system: H460 cell line with high expression of AKR1C3 enzyme; conditions: cited from earlier work
H460 cancer cells = test: Inhibition of H460 cancer cells in the presence or absence of AKR1C3 inhibitor AST-3021 (section 2.1); format: cell-based, human; conditions: for IC50: Homo sapiens
Method: The experimental scheme was as follows: • 1) H460 cell suspension was added to a 96-well plate with 100 μL per well at a cell density of 2000/well. • 2) Cells were incubated in an incubator of 37° C., 5% CO2 overnight. • 3) Compound treatment
Combined administration: 24 hours after cell plating, 98 μL of growth medium per well was added. 1 μL of AST-3021 was added to each well (final concentration 3 μM), and the plate was shaken gently to ensure even mixing, and then placed into an incubator; after 2 hours, 1 μL of the test compound at different concentrations was added, and the plate was shaken gently to ensure even mixing, and then placed into an incubator of 37° C., 5% CO2.
Administration of the drug alone: 24 hours after cell plating, 99 μL of growth medium per well was added.
In order to further verify that the compound was activated specifically by human AKR1C3 (aldosterone reductase family 1 member C3), the compound was added following the pretreatment of cells with the specific AKR1C3 enzyme inhibitor AST-3021 (3 μM), and the effect of the presence of AST-3021 on the proliferation of H460 cancer cells was tested
IC50 data of inhibitory effect of the compounds gemcitabine and H11 on H460 cancer cells in the presence or absence of the AKR1C3 inhibitor AST-3021 is shown in Table 2 and Table 3.

[3] = intraperitoneal injection, once every 3 days, for four consecutive doses; literature; cited from earlier work
[4] = system: HuPrime pancreatic cancer xenograft model PA1222; test: In vivo pharmacodynamic experiment in HuPrime pancreatic cancer PA1222 PDX model; conditions: for Tumor volume (mm^3) (x ± S): Group 2, 80 mg/kg i.p.
[5] = Plasma stability in rat plasma; conditions: for Remaining percentage (%): rat plasma
Method: 1 mM working solution of the test compound was prepared in DMSO. 1 mM working solution of propantheline was prepared in acetonitrile. 1 mM working solution of lovastatin (mevinolin) was prepared in DMSO. Propantheline was used as a positive control for human, monkey, dog, and mouse plasma stability tests. Lovastatin was a positive control for rat plasma stability test.
• A. 398 μL of plasma per well was added to the culture plate, and the plate was preheated at 37° C. for 15 minutes. • B. After preincubation, 2 μL of working solution (test solution or control solution) was added to the 398 μL plasma mentioned above, resulting in a final concentration of 5 μM. The final concentration of organic solvents was 0.5%. The test was conducted in duplicate. • C. The reaction sample was incubated at 37° C. • D. 50 μL was extracted from the reaction sample at 0, 15, 30, 60, and 120 minutes, respectively. […] 100 μL of supernatant was taken and transferred to a new plate. The supernatant was diluted with ultrapure water according to the LC-MS signal response and peak shape.
Samples were analyzed with LC-MS/MS. All calculations were conducted using Microsoft Excel. The peak area ratio was determined from the extracted ion chromatogram. • (1) The percentage of the remaining compound at each time point was calculated with the following formula: […]
wherein the slope value k was determined by linear regression of the natural logarithm of the remaining percentage of the parent drug vs. incubation time curve.

[6] = Plasma stability in human plasma; format: in vitro ADME
Method: (§1) The final concentration of organic solvents was 0.5%. The test was conducted in duplicate. • C.
(§2) Samples were analyzed with LC-MS/MS. All calculations were conducted using Microsoft Excel.

[7] = Plasma stability in monkey plasma; format: in vitro ADME
Method: as §1, §2

[8] = Plasma stability in dog plasma; format: in vitro ADME
Method: as §1, §2

[9] = Plasma stability in mouse plasma; format: in vitro ADME
Method: as §1, §2

[10] = NCI-H460, compound alone, 72 hours, read-out: IC50
[11] = NCI-H460, pretreatment with AKR1C3 inhibitor AST-3021 (3 μM), read-out: +AST-3021 IC50
[12] = Group 2, 80 mg/kg i.p. Q3D×4, Day 32

CC(C)NP(=O)(OCc1ccc([N+](=O)[O-])c(Oc2cccc(C(=O)N3CCCCC3)c2)c1)OCC1OC(n2ccc(N)nc2=O)C(F)(F)C1O (stereo not drawn) [Compound H35]
specific activation ratio (+AST-3021 IC50/IC50) [1]: 8.6
IC50 [1, 10]: 454 nM
IC50 [1, 11]: 3900 nM

CC(C)NP(=O)(OCc1ccc([N+](=O)[O-])c(Oc2ccc(C(=O)N3CCCCC3)cc2)c1)OCC1OC(n2ccc(N)nc2=O)C(F)(F)C1O (stereo not drawn) [Compound H36]
specific activation ratio (+AST-3021 IC50/IC50) [1]: 3.1
IC50 [1, 10]: 382 nM
IC50 [1, 11]: 1170 nM

CC(C)NP(=O)(OCc1ccc([N+](=O)[O-])c(Oc2ccc(-c3ccc(F)cc3)cc2)c1)OCC1OC(n2ccc(N)nc2=O)C(F)(F)C1O (stereo not drawn) [Compound H38]
specific activation ratio (+AST-3021 IC50/IC50) [1]: 507.6
IC50 [1, 10]: 65.2 nM
IC50 [1, 11]: 33100 nM

CC(C)NP(=O)(OCc1ccc([N+](=O)[O-])c(Oc2ccc(-c3ccc(C(F)(F)F)cc3)cc2)c1)OCC1OC(n2ccc(N)nc2=O)C(F)(F)C1O (stereo not drawn) [Compound H39]
specific activation ratio (+AST-3021 IC50/IC50) [1]: 12.7
IC50 [1, 10]: 2180 nM
IC50 [1, 11]: 27700 nM

CC(C)NP(=O)(OCc1ccc([N+](=O)[O-])c(Oc2ccc(-c3ccc(Cl)cc3)cc2)c1)OCC1OC(n2ccc(N)nc2=O)C(F)(F)C1O (stereo not drawn) [Compound H40]
specific activation ratio (+AST-3021 IC50/IC50) [1]: 86.9
IC50 [1, 10]: 194 nM
IC50 [1, 11]: 16900 nM

CC(C)NP(=O)(OCc1ccc([N+](=O)[O-])c(Oc2ccc(-c3ccc(Cl)cc3)c(F)c2)c1)OCC1OC(n2ccc(N)nc2=O)C(F)(F)C1O (stereo not drawn) [Compound H42]
specific activation ratio (+AST-3021 IC50/IC50) [1]: 333.5
IC50 [1, 10]: 57.1 nM
IC50 [1, 11]: 19000 nM

CC(C)NP(=O)(OCc1ccc([N+](=O)[O-])c(Oc2ccc(-c3ccccc3F)cc2)c1)OCC1OC(n2ccc(N)nc2=O)C(F)(F)C1O (stereo not drawn) [Compound H43]
specific activation ratio (+AST-3021 IC50/IC50) [1]: 257.8
IC50 [1, 10]: 60 nM
IC50 [1, 11]: 15500 nM

CC(C)NP(=O)(OCc1ccc([N+](=O)[O-])c(Oc2ccc(-c3cccc(F)c3)cc2)c1)OCC1OC(n2ccc(N)nc2=O)C(F)(F)C1O (stereo not drawn) [Compound H44]
specific activation ratio (+AST-3021 IC50/IC50) [1]: 336.1
IC50 [1, 10]: 51.3 nM
IC50 [1, 11]: 17300 nM

CCN(CCCCBr)P(=O)(OCc1ccc([N+](=O)[O-])c(Oc2ccc(-c3ccccc3)cc2)c1)OCC1OC(n2ccc(N)nc2=O)C(F)(F)C1O (stereo not drawn) [TH3057]
IC50 ([2]; with addition of AKR1C3 enzyme inhibitor): 5000 nM
IC50 ([2]; without AKR1C3 enzyme inhibitor): 200 nM

Nc1ccn([C@@H]2O[C@H](CO)[C@@H](O)C2(F)F)c(=O)n1 [gemcitabine]
Specific activation ratio (H460 cancer cells; H460): 1.08
IC50 (H460 cancer cells; NCI-H460, 72 h, H460, 72 hours, read-out: IC50 (nmol/L) AST-3021 not added): 13.2 nmol/L
IC50 (H460 cancer cells; NCI-H460, H460, AST-3021 3 μM, read-out: IC50 (nmol/L) AST-3021 added): 14.2 nmol/L
MTD [3]: 120 mg/kg
Relative tumor volume (x ± S) [4, 12]: 0.06 ± 0.04
T/C (%) [4, 12]: 0.97%
TGI (%) [4, 12]: 99.03%
complete tumor inhibition rate [4, 12]: 60%
Tumor volume (x ± S) ([4]; Group 2, 80 mg/kg i.p. Q3D×4, Day 32, mean ± standard error): 6.79 ± 4.33
Tumor volume (mm^3) (x ± S) ([4]; day 0): 102.95 mm^3
Tumor volume (mm^3) (x ± S) ([4]; day 4): 104.07 mm^3
Tumor volume (mm^3) (x ± S) ([4]; day 7): 74.43 mm^3
Tumor volume (mm^3) (x ± S) ([4]; day 11): 38.92 mm^3
Tumor volume (mm^3) (x ± S) ([4]; day 14): 24.66 mm^3
Tumor volume (mm^3) (x ± S) ([4]; day 18): 17.66 mm^3
Tumor volume (mm^3) (x ± S) ([4]; day 21): 12.13 mm^3
Tumor volume (mm^3) (x ± S) ([4]; day 25): 10.23 mm^3
Tumor volume (mm^3) (x ± S) ([4]; day 28): 7.97 mm^3
Tumor volume (mm^3) (x ± S) ([4]; day 32): 6.79 mm^3

CC[C@H](C)C(=O)O[C@H]1C[C@@H](C)C=C2C=C[C@H](C)[C@H](CC[C@@H]3C[C@@H](O)CC(=O)O3)[C@H]21 [lovastatin, reference compound]
Remaining percentage (%) ([5]; 0 min, 5 μM, 37° C.): 100.00%
Remaining percentage (%) ([5]; 15 min): 5.27%
Remaining percentage (%) ([5]; 30 min): 0.52%
Remaining percentage (%) ([5]; 60 min): 0.45%
Remaining percentage (%) ([5]; 120 min): 0.34%
t1/2 ([5]; rat, plasma): 3.53 min

CC(C)[N+](C)(CCOC(=O)C1c2ccccc2Oc2ccccc21)C(C)C [propantheline, reference compound]
Remaining percentage (%) ([6]; 0 min, 5 μM, 37° C.): 100.00%
Remaining percentage (%) ([6]; 15 min): 81.24%
Remaining percentage (%) ([6]; 30 min): 59.99%
Remaining percentage (%) ([6]; 60 min): 32.76%
Remaining percentage (%) ([6]; 120 min): 7.75%
half-life at 5 µM ([6]; human): 36.6 min
Remaining percentage (%) ([7]; 0 min, 5 μM, 37° C.): 100.00%
Remaining percentage (%) ([7]; 15 min): 90.53%
Remaining percentage (%) ([7]; 30 min): 77.57%
Remaining percentage (%) ([7]; 60 min): 70.39%
Remaining percentage (%) ([7]; 120 min): 49.22%
half-life at 5 µM ([7]; monkey): 121 min
Remaining percentage (%) ([8]; 0 min, 5 μM, 37° C.): 100.00%
Remaining percentage (%) ([8]; 15 min): 101.04%
Remaining percentage (%) ([8]; 30 min): 87.98%
Remaining percentage (%) ([8]; 60 min): 85.64%
Remaining percentage (%) ([8]; 120 min): 66.64%
half-life at 5 µM ([8]; dog): 203 min
half-life at 5 µM [9]: 21.8 min
Remaining percentage (%) ([9]; 0 min, 5 μM, 37° C.): 100.00%
Remaining percentage (%) ([9]; 15 min): 69.89%
Remaining percentage (%) ([9]; 30 min): 43.11%
Remaining percentage (%) ([9]; 60 min): 15.28%
Remaining percentage (%) ([9]; 120 min): 2.03%

— patent US20240368209A1, “GEMCITABINE ANTICANCER DERIVATIVE AND ANTICANCER PHARMACEUTICAL USE” (ASCENTAWITS PHARMACEUTICALS, LTD., priority 2021, published 2024)
